According to patent EP2975030B1, “DIHYDROPYRIDAZINE-3,5-DIONE DERIVATIVE” (Chugai Seiyaku Kabushiki Kaisha, priority 2013, dated 2014):

System: rat small-intestinal brush border membrane vesicles
Test: Inhibitory effect on 33PO4 uptake into rat small-intestinal brush border membrane vesicles (rapid filtration method)
Type: biochemical, Wistar female rat
Conditions: 1 µM test compound; 33PO4 uptake into rat small-intestinal BBMVs, 60 seconds
Experimental: The ^33PO4 transport activity of the small-intestinal BBMVs was determined by the rapid filtration method. […] Then, ice-cold buffer C (110 mM NaCl, 1 mM KH2PO4, and 10 mM HEPES (pH 7.5)) was added to each reaction mixture, which was immediately suction-filtered through a Millipore filter. The filter was washed with buffer C, and each sample was then dissolved in a liquid scintillator. The amount of ^33PO4 uptake into BBMVs was measured using a liquid scintillation counter. […]

| SMILES | Rate of uptake inhibition (%) (1 µM) |
| --- | --- |
| C[C@]12CCCN1N(Cc1cccc(F)c1F)C(=O)C(C(=O)Nc1ccc(C(F)(F)F)cc1-c1cncc(C(F)(F)F)c1)=C2O [Example 91] | 87% |
| COCCN(C)CCN(C)c1ccc(CN2C(=O)C(C(=O)Nc3ccc(C(F)(F)F)cc3-c3cc(C(F)(F)F)ncn3)=C(O)C3(CCCC3)N2C)c(F)c1F [Example 442] | 24% |
| CSc1ccc(-c2cc(C(F)(F)F)ccc2NC(=O)C2=C(O)[C@@]3(C)CCCN3N(Cc3ccc(CCCCCCC(=O)O)c(F)c3F)C2=O)cn1 [Example 115, 7-[4-[[(4aR)-4-Hydroxy-4a-methyl-3-[[2-(6-methylsulfanylpyridin-3-yl)-4-(trifluoromethyl)phenyl]carbamoyl]-2-oxo-6,7-dihydro-5H-pyrrolo[1,2-b]pyridazin-1-yl]methyl]-2,3-difluorophenyl]heptanoate] | 85% |
| Cc1c(Cl)ncnc1-c1cc(C(F)(F)F)ccc1NC(=O)C1=C(O)[C@H](C(C)(C)C)N(C)N(Cc2ccc(OCCN3CCOCC3)c(F)c2F)C1=O [Example 276] | 68% |
| CCC1(CC)C(O)=C(C(=O)Nc2ccc(C(F)(F)F)cc2-c2cc(C(F)(F)F)ncn2)C(=O)N(Cc2ccc(OCCN3CCOCC3)c(F)c2F)N1C [Example 291] | 47% |
| C[C@]12CCCN1N(Cc1c(F)cccc1Cl)C(=O)C(C(=O)Nc1ccc(C(F)(F)F)cc1-c1cc(C(F)(F)F)ncn1)=C2O [Example 210] | 71% |
| C[C@]12CCCN1N(Cc1cc(F)c(F)c(F)c1)C(=O)C(C(=O)Nc1cc(F)c(Br)c(F)c1)=C2O [Example 197] | 82% |
| Cc1ccc(CN2C(=O)C(C(=O)Nc3ccc(C(F)(F)F)cc3-c3cc(C(F)(F)F)ncn3)=C(O)[C@@]3(C)CCCN23)cc1 [Example 187] | 80% |
| CN1N(Cc2ccc(OCCCCCOCCO)c(F)c2F)C(=O)C(C(=O)Nc2ccc(C(F)(F)F)cc2-c2cc(C(F)(F)F)ncn2)=C(O)C12CCCC2 [Example 397] | 40% |
| CN1N(Cc2ccc(OCCN3CCN(CCO)CC3)c(F)c2F)C(=O)C(C(=O)Nc2ccc(C(F)(F)F)cc2-c2cc(C(F)(F)F)ncn2)=C(O)C12CCCC2 [Example 376] | 33% |
| C[C@]12CCCN1N(Cc1c(F)cc(C#CCCOC[C@H](O)CO)cc1F)C(=O)C(C(=O)Nc1ccc(C(F)(F)F)cc1-c1ccc(C(F)(F)F)nc1)=C2O [Example 145] | 78% |
| COCC(C)(C)N(C)CCOc1ccc(CN2C(=O)C(C(=O)Nc3ccc(C(F)(F)F)cc3-c3cc(C(F)(F)F)ncn3)=C(O)C3(CCCC3)N2C)c(F)c1F [Example 372] | 38% |
| CN1N(Cc2ccc(OCCCCCOCCCO)c(F)c2F)C(=O)C(C(=O)Nc2ccc(C(F)(F)F)cc2-c2cc(C(F)(F)F)ncn2)=C(O)C12CCCC2 [Example 400] | 36% |
| COc1cccc(-c2cc(C(F)(F)F)ccc2NC(=O)C2=C(O)[C@@]3(C)CCCN3N(Cc3ccc(OCc4ccncc4)c(F)c3F)C2=O)c1OC [Example 151, (4aR)-1-[[2,3-Difluoro-4-(pyridin-4-ylmethoxy)phenyl]methyl]-N-[2-(2,3-dimethoxyphenyl)-4-(trifluoromethyl)phenyl]-4-hydroxy-4a-methyl-2-oxo-6,7-dihydro-5H-pyrrolo[1,2-b]pyridazine-3-carboxamide] | 92% |
| COc1cccc(-c2cc(C(F)(F)F)ccc2NC(=O)C2=C(O)[C@@]3(C)CCCN3N(Cc3ccc(C#CCOCCCO)c(F)c3F)C2=O)c1OC [Example 127] | 95% |
| CN1N(Cc2ccc(OCCN3C4CCC3COC4)c(F)c2F)C(=O)C(C(=O)Nc2ccc(C(F)(F)F)cc2-c2cc(C(F)(F)F)ncn2)=C(O)C12CCCC2 [Example 367] | 43% |
| CN1N(Cc2ccc(OCCN3CCN(S(C)(=O)=O)CC3)c(F)c2F)C(=O)C(C(=O)Nc2ccc(C(F)(F)F)cc2-c2cc(C(F)(F)F)ncn2)=C(O)C12CCC2 [Example 363] | 11% |
| CSc1ccc(-c2nc(C(F)(F)F)ccc2NC(=O)C2=C(O)[C@@]3(C)CCCN3N(Cc3cccc(F)c3F)C2=O)cn1 [Example 105] | 72% |
| C[C@]12CCCN1N(Cc1ccccc1F)C(=O)C(C(=O)Nc1ccc(C(F)(F)F)cc1-c1cc(C(F)(F)F)ncn1)=C2O [Example 207] | 73% |

| SMILES | Rate of uptake inhibition (%) (1 µM) |
| --- | --- |
| CN1[C@@H](C(C)(C)C)C(O)=C(C(=O)Nc2cc(F)c(Br)c(F)c2)C(=O)N1Cc1cccc(F)c1F [Example 240] | 72% |
| C[C@]12CCCN1N(Cc1cccc(F)c1F)C(=O)C(C(=O)Nc1ccc(C(F)(F)F)cc1-c1ccc(C(F)(F)F)nc1Br)=C2O [Example 85] | 71% |
| Cc1c(-c2cc(C(F)(F)F)ccc2NC(=O)C2=C(O)C3(CCC3)N(C)N(Cc3ccc(OCCN4CCOCC4)c(F)c3F)C2=O)ncnc1C(F)(F)F [Example 285] | 62% |
| C[C@]12CCCN1N(Cc1ccc(C#CCOCCCCO)c(F)c1F)C(=O)C(C(=O)Nc1ccc(C(F)(F)F)cc1-c1ccc(C(F)(F)F)nc1)=C2O [Example 128] | 72% |
| CN1N(Cc2ccc(OCCN3CCOCC3)c(F)c2F)C(=O)C(C(=O)Nc2ccc(Cl)cc2-c2ccc(C(F)(F)F)nc2)=C(O)C12CCCC2 [Example 288] | 61% |
| C[C@]12CCCN1N(CCCC(F)(F)F)C(=O)C(C(=O)Nc1ccc(C(F)(F)F)cc1-c1cc(C(F)(F)F)ncn1)=C2O [Example 234, (4aR)-4-Hydroxy-4a-methyl-2-oxo-1-(4,4,4-trifluorobutyl)-N-[4-(trifluoromethyl)-2-[6-(trifluoromethyl)pyrimidin-4-yl]phenyl]-6,7-dihydro-5H-pyrrolo[1,2-b]pyridazine-3-carboxamide] | 73% |
| CN1N(Cc2ccc(OCCCCOC[C@H](O)CO)c(F)c2F)C(=O)C(C(=O)Nc2ccc(C(F)(F)F)cc2-c2ccc(C(F)(F)F)nc2)=C(O)C12CCC2 [Example 384] | 39% |
| COCCN(C)CCOc1c(-c2cccnc2)cc(CN2C(=O)C(C(=O)Nc3ccc(C(F)(F)F)cc3-c3cc(C(F)(F)F)ncn3)=C(O)C3(CCCC3)N2C)c(F)c1F [Example 440, 9-[[2,3-Difluoro-4-[2-[2-methoxyethyl(methyl)amino]ethoxy]-5-(3-pyridinyl)phenyl]methyl]-6-hydroxy-10-methyl-8-oxo-N-[4-(trifluoromethyl)-2-[6-(trifluoromethyl)pyrimidin-4-yl]phenyl]-9,10-diazaspiro[4.5]dec-6-ene-7-carboxamide] | 28% |
| C[C@]12CCCN1N(Cc1ccc(Br)cc1F)C(=O)C(C(=O)Nc1cc(F)c(Br)c(F)c1)=C2O [Example 166, (4aR)-N-(4-Bromo-3,5-difluorophenyl)-1-[(4-bromo-2-fluorophenyl)methyl]-4-hydroxy-4a-methyl-2-oxo-6,7-dihydro-5H-pyrrolo[1,2-b]pyridazine-3-carboxamide] | 73% |
| CCOC(=O)CCCCCCN1C(=O)C(C(=O)Nc2ccc(C(F)(F)F)cc2-c2ccc(C(F)(F)F)nc2)=C(O)[C@@]2(C)CCCN12 [Example 235, Ethyl 7-[(4aR)-4-hydroxy-4a-methyl-2-oxo-3-[[4-(trifluoromethyl)-2-[6-(trifluoromethyl)pyridin-3-yl]phenyl]carbamoyl]-6,7-dihydro-5H-pyrrolo[1,2-b]pyridazin-1-yl]heptanoate] | 65% |
| C[C@]12CCCN1N(Cc1c(F)cc(OCCCCCCOC[C@@H](O)CO)cc1F)C(=O)C(C(=O)Nc1ccc(C(F)(F)F)cc1-c1ccc(C(F)(F)F)nc1)=C2O [Example 154] | 73% |
| C[C@]12CCCN1N(Cc1ccc(F)cc1)C(=O)C(C(=O)Nc1ccc(C(F)(F)F)cc1-c1ccc(C(F)(F)F)nc1)=C2O [Example 199] | 79% |
| CN(CCOc1ccc(CN2C(=O)C(C(=O)Nc3ccc(C(F)(F)F)cc3-c3cc(C(F)(F)F)ncn3)=C(O)C3(CCC3)N2C)c(F)c1F)C1CCOC1 (centres unmarked) [Example 338, 6-[[2,3-Difluoro-4-[2-[methyl(oxolan-3-yl)amino]ethoxy]phenyl]methyl]-9-hydroxy-5-methyl-7-oxo-N-[4-(trifluoromethyl)-2-[6-(trifluoromethyl)pyrimidin-4-yl]phenyl]-5,6-diazaspiro[3.5]non-8-ene-8-carboxamide] | 66% |
| CN1N(Cc2cccc(F)c2F)C(=O)C(C(=O)Nc2ccc(C(F)(F)F)cc2-c2ncnc(C#N)c2Cl)=C(O)C1(C)C [Example 312] | 74% |
| C[C@]12CCCN1N(Cc1ccc(C#CCN3CCCC3=O)c(F)c1F)C(=O)C(C(=O)Nc1ccc(Br)c(F)c1)=C2O [Example 131] | 87% |
| CN1N(Cc2ccc(C#CCN3CCOCC3)c(F)c2F)C(=O)C(C(=O)Nc2ccc(C(F)(F)F)cc2-c2cc(C(F)(F)F)ncn2)=C(O)C1(C)C [Example 315, 2-[[2,3-Difluoro-4-(3-morpholin-4-ylprop-1-ynil)phenyl]methyl]-5-hydroxy-1,6,6-trimethyl-3-oxo-N-[4-(trifluoromethyl)-2-[6-(trifluoromethyl)pyrimidin-4-yl]phenyl]pyridazine-4-carboxamide] | 63% |
| CN(CCOCCC(=O)NCC(O)CO)CCOc1ccc(CN2C(=O)C(C(=O)Nc3ccc(C(F)(F)F)cc3-c3cc(C(F)(F)F)ncn3)=C(O)C3(CCCC3)N2C)c(F)c1F (centres unmarked) [Example 426] | 24% |
| C[C@]12CCCN1N(Cc1ccc(F)cc1)C(=O)C(C(=O)Nc1ccc(C(F)(F)F)cc1-c1cc(C(F)(F)F)ncn1)=C2O [Example 208] | 90% |
| CN1[C@@H](C(C)(C)C)C(O)=C(C(=O)Nc2ccc(C(F)(F)F)cc2-c2ccc(C(F)(F)F)nc2)C(=O)N1Cc1ccc(OCCN2CCOCC2)c(F)c1F [Example 266] | 62% |
